Where “and” joins values, the source holds several entries; their conditions need not be identical. Equal values may be shown once.
Assays:
epo protein = assay: In vivo epo protein expression after delivery of lipid encapsulated mouse epo mRNA (epo ELISA); parameters: species or system Balb/c mice; settings: at 0.1 mg/kg, intravenous, 6 hours, mice
Description: Epo expression following delivery of mRNA using lipid nanoparticles comprising the lipids described herein was measured.
Female Balb/c mice (6-8 weeks old) were used for evaluation of epo protein expression in vivo following delivery of lipid encapsulated mouse epo mRNA. All formulations were administered intravenously via tail vein injection at a dose of 0.03 and 0.1 mg/kg at a dosing volume of 5 mL/kg. Terminal blood collection was performed via cardiac puncture under 2% isoflurane at 6 hours after Formulation injections. Blood was collected into 0.109 M citrate buffer tube and processed by centrifugation at 5000 rpm for 10 minutes. Serum was collected and epo protein levels were analyzed by epo ELISA assay (R&D systems). A standard curve was constructed using samples from PBS-injected mice and relative […] expression was determined by comparing treated groups to untreated PBS control.

Factor VII = assay: In vivo mouse Factor VII siRNA knockdown with lipid nanoparticles; parameters: species or system C57BL/6 mice; settings: intravenous, 48 hours, mice; for Factor VII knockdown activity compared with ATX-002 (FIG. 18): both at 0.03 and 0.1 mg/kg; for Bioactivity: percentage in vivo Factor VII knockdown: dose 0.03 mg/kg
Description: The first pair of numbers denotes the number of carbons in the ester, including the carbonyl, for L1 and L2; the pair of numbers in the parenthesis denotes the number of carbons in each branch of the branched alkyl, R1 or if R2 is also branched, R1/R2 (an asterisk denotes a double bond); the number of carbons in R3 is given; and the last line denotes the substitution for R4 and R5. The ATX number is given for reference herein. Calculated Log D values (c-Log D) and calculated pKa (c-pKa) values are given, as well as measured pKa in parenthesis (measured in the Formulation milieu). The c-Log D and c-pKa values are generated by ACD Labs Structure Designer v12.0. Bioactivity is percentage in vivo Factor VII knockdown at a dose of 0.03 mg/kg, unless otherwise designated.
Using a liver-directed in vivo screen of the liposome libraries, a series of compounds were tested that facilitate high levels of siRNA mediated gene silencing in hepatocytes, the cells comprising the liver parenchyma. Factor VII, a blood-clotting factor, is a suitable target gene for assaying functional siRNA delivery to liver. Because this factor is produced specifically in hepatocytes, gene silencing indicates successful delivery to parenchyma, as opposed to delivery to the cells of the reticulo-endothelial system (e.g., Kupffer cells). Furthermore, Factor VII is a secreted protein that can be readily measured in serum, obviating the need to euthanize animals. Silencing at the mRNA level can be readily determined by measuring levels of protein. This is because the protein's short half-life (2-5 hour). Compositions with siRNA directed to […] were Formulated with the lipid, and comparator sample phosphate-buffered saline (PBS). Female C57BL/6 mice (6-8 week old) were used for FVII siRNA knockdown (KD) experiments.
All Formulations were administered intravenously via tail vein injection at a dose of 0.03 and 0.1 mg/kg at a dosing volume of […]. Terminal blood collection was performed via cardiac puncture under 2% isoflurane at 48 hours after Formulation injections. Blood was collected into 0.109 M citrate buffer tube and processed by centrifugation at 1200 G for 10 min. Plasma was collected and Factor VII protein levels were analyzed by chromogenic assay (Biophen FVII, Aniara Corporation). A standard curve was constructed using samples from PBS-injected mice and relative Factor VII expression was determined by comparing treated groups to untreated PBS control.

mouse epo mRNA = assay: In vivo EPO mRNA stability after injection of lipid encapsulated mouse epo mRNA; parameters: species or system Balb/c mice; settings: 0.03 and 0.1 mg/kg intravenous, 6 hours after injection, mice
Description: Levels of mRNA in plasma were measured and compared following injection of nanoparticles comprising different cationic lipids. Female Balb/c mice (6-8 week old) were used for evaluation of plasma erythropoietin (epo) levels in vivo following injection of lipid encapsulated mouse epo mRNA. All Formulations were administered intravenously via tail vein injection at a dose of 0.03 and 0.1 mg/kg at a dosing volume of 5 ml/kg. Terminal blood collection was performed via cardiac puncture under 2% isoflurane at 6 hours after Formulation injections. Blood was collected into 0.109 M citrate buffer tube and processed by centrifugation at 5000 rpm for 10 minutes. Serum was collected and epo mRNA levels were analyzed. Results are shown at FIG. 17.

[1] = Measured pKa of cationic lipids in LNP or micellar formulations by TNS fluorescence; assay type: physicochemical; settings: for Δ measured pKa vs ATX-0002: change on shortening the ester; for pKa / (pKa) measured pKa: measured in the Formulation milieu, TNS fluorescence, 1 mM total lipids
Description: pKa of cationic lipids in LNP or micellar Formulations were measured by the procedure of Jayaraman, 2012, Angew. Chem. Int. Ed., 51:8529-33, hereby incorporated by reference. Lipid micelles or LNPs are diluted to 1 mM total lipids in universal buffer with a pH range between 3 and 12 in presence of 0.06 mg/mL 6-(p-toluidino)-2-naphthalenesulfonic acid sodium salt (TNS) reagent (Sigma Aldrich), a pH sensitive fluorescence probe. The anionic TNS molecule fluoresces when associated with the surface of positively charged membranes but is not fluorescent when free in solution, allowing measurement of pKa. The TNS signal is measured on a spectral plate reader. The TNS signal is plotted as function of the pH and analyzed using a non-linear (Boltzman) to determine the pKa.
Reagents used in the assay include • Hepes free acid, CAS: 7365-45-9 (VWR, 0511-1KG or equivalent) • MES, HPLC grade: (Sigma 105228-100G or equivalent) • Ammonium acetate, HPLC grade: (Sigma 90335-100 mL or equivalent) • Sodium chloride, HPLC grade (VWR EM-MX0475-1 or equivalent) • TNS (Sigma-Aldrich T9792-250 mg or equivalent) • Hydrochloric acid • DMSO • DPBS without calcium and magnesium (GE, SH30028.02 or equivalent) • H2O, HPLC grade (OmniSolv, WX0004-1 or equivalent)
To prepare a stock solution of Universal Buffer (UB) in a polystyrene sterile storage bottle, prepare 1 L using the following table.
Reagents are sterile filtered through a 0.2 μm filter. Preparation of UB solution includes adding 5 mL of 1 M HCl to a 350 mL stock solution.
To prepare a pH ladder, centrifuge tubes (50 mL) with 20 mL UB buffer are used. (pH ˜3) and differing amounts of 2 N NaOH. Stock solutions of TNS at 1 mg/mL in DMSO. 60 μL of TNS at 1 mg/mL is added to 940 μL water to reach a working solution concentration of 0.06 mg/mL. Five test samples, 1 mL of LNP sample in PBS at 1 mM total lipid, and 1 reference sample are analyzed per plate. Samples at different pH values are prepared in wells in which 25 μL of 0.06 mg/mL TNS is added. 15 μL of test samples is added per well. The microplate is incubated for 15 minutes at room temperature in the dark. TNS template can be used to format data from the plate reader. Perform non-linear (Boltzman) regression analysis of the samples in Origin Pro 8 or equivalent software.

## CCCCCC/C=C\COC(=O)CCCN(CCCC(=O)OC(CCCCCCC)CCCCCCCC)C(=O)SCCN(C)C (centres unmarked) [ATX-0057]
Epo protein
  epo expression compared with ATX-002 (FIG. 19): substantially higher amounts
Factor VII
  Factor VII knockdown activity compared with ATX-002 (FIG. 18): substantially more effective than ATX-002
  Bioactivity: percentage in vivo Factor VII knockdown: 86 percentage
Mouse epo mRNA
  epo mRNA levels in serum compared with ATX-0002 (FIG. 17): substantial improvement over ATX-0002
[1]
  Δ measured pKa vs ATX-0002: no impact
  pKa: 5.7

## CCCCCC/C=C\COC(=O)CCCN(CCCC(=O)OC(CCCCCC)CCCCCCC)C(=O)SCCN(C)C (centres unmarked) [ATX-0058]
Factor VII
  Factor VII knockdown activity compared with ATX-002 (FIG. 18): substantially more effective than ATX-002
  Bioactivity: percentage in vivo Factor VII knockdown: 86 percentage
[1]
  Δ measured pKa vs ATX-0002: no impact
  pKa: 5.95

## CCCCCC/C=C\COC(=O)CN(CC(=O)OC(CCCCCCCC)CCCCCCCC)C(=O)SCCN(C)C [ATX-0061]
Factor VII
  Bioactivity: percentage in vivo Factor VII knockdown: 0 percentage
[1]
  Δ measured pKa vs ATX-0002: −0.90
  pKa: 5.13

## CCCCCC/C=C\COC(=O)CN(CC(=O)OC(CCCCC)CCCCC)C(=O)SCCN(C)C [ATX-0063]
Factor VII
  Bioactivity: percentage in vivo Factor VII knockdown: 0 percentage
[1]
  Δ measured pKa vs ATX-0002: −0.7
  pKa: 5.39

## CCCCCC/C=C\COC(=O)CN(CC(=O)OC(CCCCCCC)CCCCCCCC)C(=O)SCCN(C)C (centres unmarked) [ATX-0064]
Factor VII
  Bioactivity: percentage in vivo Factor VII knockdown: 0 percentage
[1]
  Δ measured pKa vs ATX-0002: −0.90
  pKa: 5.14

## CCCCCC/C=C\COC(=O)CCCN(CCCC(=O)OC(CCCCCCC)CCCCCCC)C(=O)SCCN(C)C [ATX-0081]
Factor VII
  Bioactivity: percentage in vivo Factor VII knockdown: 93 percentage
Mouse epo mRNA
  epo mRNA levels in serum compared with ATX-0002 (FIG. 17): substantial improvement over ATX-0002
[1]
  pKa: 6.04

## CCCCCC/C=C\COC(=O)CCCCCN(CCC(=O)OC(CCCCCCC)CCCCCCC)C(=O)SCCN(C)C [ATX-0082]
Mouse epo mRNA
  epo mRNA levels in serum compared with ATX-0002 (FIG. 17): substantial improvement over ATX-0002

## CCCCCC/C=C\COC(=O)CCCCCN(CCCC(=O)OC(CCCCCCC)CCCCCCC)C(=O)SCCN(C)C [ATX-0083]
Factor VII
  Bioactivity: percentage in vivo Factor VII knockdown: 65 percentage
Mouse epo mRNA
  epo mRNA levels in serum compared with ATX-0002 (FIG. 17): substantial improvement over ATX-0002
[1]
  pKa: 5.98

## CCCCCC/C=C\COC(=O)CCCCCN(CCCCCC(=O)OC(CCCCCC)CCCCCC)C(=O)SCCN(C)C [ATX-0084]
Factor VII
  Bioactivity: percentage in vivo Factor VII knockdown: 68 percentage
Mouse epo mRNA
  epo mRNA levels in serum compared with ATX-0002 (FIG. 17): substantial improvement over ATX-0002
[1]
  pKa: 6.11

## CCCCCC/C=C\COC(=O)CCCN(CCCC(=O)OC(CCCCCC)CCCCCC)C(=O)SCCN(C)C [ATX-0086]
Factor VII
  Bioactivity: percentage in vivo Factor VII knockdown: 13 percentage
Mouse epo mRNA
  epo mRNA levels in serum compared with ATX-0002 (FIG. 17): substantial improvement over ATX-0002
[1]
  pKa: 6.05

## CCCCCC/C=C\COC(=O)CCCN(CCCC(=O)OC(CCCCCCCC)CCCCCCCC)C(=O)SCCN(C)C [ATX-0087]
Mouse epo mRNA
  epo mRNA levels in serum compared with ATX-0002 (FIG. 17): substantial improvement over ATX-0002

## CCCCCC/C=C\COC(=O)CCCCCCCN(CCCCCCCC(=O)OC(CCCCCC)CCCCCC)C(=O)SCCN(C)C [ATX-0093]
Factor VII
  Bioactivity: percentage in vivo Factor VII knockdown: 70 percentage
[1]
  pKa: 5.79

## CCCCCC/C=C\COC(=O)CCCCCCCN(CCCCCCCC(=O)OC(CCCCCCCC)CCCCCCCC)C(=O)SCCN(C)C [ATX-0096]
Factor VII
  Bioactivity: percentage in vivo Factor VII knockdown: 40 percentage
[1]
  pKa: 5.59

## CCCCCC/C=C\COC(=O)CCCCCCCN(CCCCCCCC(=O)OC(CCCCCCC)CCCCCCC)C(=O)SCCN(C)C [ATX-0097]
Factor VII
  Bioactivity: percentage in vivo Factor VII knockdown: 71 percentage
[1]
  pKa: 5.89

## CCCCCCCC(CCCCCCC)OC(=O)CN(CC(=O)OC(CCCCCCC)CCCCCCC)C(=O)SCCCN(CC)CC [ATX-0134]
Factor VII
  Bioactivity: percentage in vivo Factor VII knockdown: 25 percentage
[1]
  pKa: 5.62

## CCCCCC(CCCCC)OC(=O)CN(CC(=O)OC(CCCCC)CCCCC)C(=O)SCCCN(C)C [drawing 51]
Factor VII
  Bioactivity: percentage in vivo Factor VII knockdown: 0 percentage
[1]
  (pKa) measured pKa: 6.17
  pKa: 6.28

## CCCCCC(CCCCC)OC(=O)CN(CC(=O)OC(CCCCC)CCCCC)C(=O)SCCCN(C)C [drawing 52]
Factor VII
  Bioactivity: percentage in vivo Factor VII knockdown: 0 percentage
[1]
  (pKa) measured pKa: 6.28 and 6.17

## CCCCCC/C=C\COC(=O)CCCN(CCCC(=O)OC(CCCCCCCC)CCCCCCCC)C(=O)SCCN(C)C [drawing 76]
Factor VII
  Bioactivity: percentage in vivo Factor VII knockdown: 80 percentage
[1]
  pKa: 6.06

## CCCCCC/C=C\COC(=O)CCCCCN(CCC(=O)OC(CCCCCCC)CCCCCCC)C(=O)SCCN(C)C [drawing 82]
Factor VII
  Bioactivity: percentage in vivo Factor VII knockdown: 43 percentage
[1]
  pKa: 5.77
